According to patent publication US20240269139A1, “COMPOUNDS FOR TARGETED PROTEIN DEGRADATION OF KINASES” (DANA-FARBER CANCER INSTITUTE, INC., priority 2020, published 2024):

How the values were obtained:
[1] = test system: protein kinases in MOLT-4 cells; test: Whole cell quantitative proteomics in MOLT-4 cells; details: for GCK binding and degradation: 1 μM, 5 h; for kinase degradation over time: MOLT-4, 1 μM, 1, 2, 4, 8 and 12 h
Protocol: Whole cell multiplexed quantitative proteomics was employed to measure changes in abundance of the proteome in response to treatment with each of the kinase degrader molecules relative to DMSO (Table 1, Appendix I).
Cells were treated with DMSO (biological triplicate) or degrader at indicated dose and time and cells were harvested by centrifugation. […] Precipitated protein was resuspended in 4 M Urea, 50 mM HEPES pH 7.4, followed by dilution to 1 M urea with the addition of 200 mM EPPS, pH 8. Proteins were first digested with LysC (1:50: enzyme:protein) for 12 hours at room temperature. The LysC digestion was diluted to 0.5 M Urea with 200 mM EPPS pH 8 followed by digestion with trypsin (1:50; enzyme:protein) for 6 hours at 37° C. Tandem mass tag (TMT) reagents (Thermo Fisher Scientific) were dissolved in anhydrous acetonitrile (ACN) according to manufacturer's instructions. […] The 10, 11, or 16-plex labeling reactions were performed for 1.5 hours at room temperature and the reaction quenched by the addition of hydroxylamine to a final concentration of 0.3% for 15 minutes at room temperature. The sample channels were combined at a 1:1 ratio, desalted using C18 solid phase extraction cartridges (Waters®) and analyzed by LC-MS for channel ratio comparison. Samples were then combined using the adjusted volumes determined in the channel ratio analysis and dried down in a speed vacuum. The combined sample was then resuspended in 1% formic acid, and acidified (pH 2-3) before being subjected to desalting with C18 SPE (Sep-Pak®, Waters®). Samples were then offline fractionated into 96 fractions by high pH reverse-phase HPLC (Agilent® LC1260) through an aeris peptide xb-c18 column (Phenomenex®) with mobile phase A containing 5% acetonitrile and 10 mM NH4HCO3 in LC-MS grade H2O, and mobile phase B containing 90% acetonitrile and 10 mM NH4HCO3 in LC-MS grade H2O (both pH 8.0). The 96 resulting fractions were then pooled in a non-continuous manner into 24 fractions and desalted using C18 solid phase extraction plates (SOLA®, Thermo Fisher Scientific) followed by subsequent mass spectrometry analysis.
Data were collected using an Orbitrap Fusion™ Lumos™ mass spectrometer (Thermo Fisher Scientific, San Jose, CA, USA) coupled with a Proxeon EASY-nLC™ 1200 LC pump (Thermo Fisher Scientific) or an Orbitrap Eclipse™ Tribrid™ mass spectrometer (Thermo Fisher Scientific, San Jose, CA, USA) coupled with an UltiMate™ 3000 RSLCnano System. Peptides were separated on an EasySpray™ ES803a/ES803a.rev2 75 μm inner diameter microcapillary column (ThermoFisher Scientific).
Data dependent MS2 spectra were acquired in the ion trap with a normalized collision energy (NCE) set at 35%, AGC target set to 1.8×10^4 and a maximum injection time of 120 ms. MS3 scans were acquired in the Orbitrap with HCD collision energy set to 55%. AGC target set to 2×10^5, maximum injection time of 150 ms, resolution at 50,000 and with a maximum synchronous precursor selection (SPS) precursors set to 10.
Proteome Discoverer™ 2.1, 2.2 or 2.4 (Thermo Fisher Scientific) was used for .RAW file processing and controlling peptide and protein level false discovery rates, assembling proteins from peptides, and protein quantification from peptides.

[2] = target: T1, CRBN-degrader-kinase ternary complexes (Homo sapiens, UniProt Q96SW2); test: FLAG-CRBN affinity purification TMT LC-MS3 (AP-MS) of degrader-mediated ternary complexes; format: cell-based, H. sapiens; details: for enriched proteins in the CRBN AP-MS: relative to SB1-G-187 and WH-10417-099
T1 construct: host or cells: HEK293T
Source text: An important aspect of protein degraders is the multifaceted nature of the molecule that enables heightened target selectivity due to differences in complementarity of target-ligase interactions, which is not a consideration when assessing selectivity of inhibitors for target engagement (Famaby el al., Nat Chem Biol 15:672-680 (2019)). For compound-induced degradation to be successful, productive ternary complex formation (ligase-degrader-POI) is necessary for proximity-mediated ubiquitin transfer onto the POI. […] Cellular affinity purification was performed, followed by mass spectrometry (AP-MS) of FLAG-tagged CRBN transiently overexpressed in HEK293T cells. FLAG-CRBN expressing cells were co-treated with proteosome inhibitor and 1 μM of each degrader for 5 h, and the degree of kinase target enrichment was compared to kinase degradation hits in matched global proteomics analysis experiments (FIG. 3A, FIG. 3C). The proteins identified as complexed with CRBN were enriched for kinases as well as their known binding partners such as Cyclin B (CDK1) and RASSF1 (STK4), consistent with the binding profiles of the assayed degraders. All kinases identified by AP-MS except CSNK1A1 were also detected in the HEK293T whole proteome degrader profiling experiment, allowing us to interrogate trends across 52 unique kinases (FIG. 4A; FIG. 11B). Limitations of this experiment include the potential loss of transient or weakly bound complexes in the enrichment and subsequent wash steps, the inherent noise associated with AP-MS relative to global proteomics analysis (Dunham et al., Proteomics 12:1576-1590 (2012): Yugandhar et al., Comput Struct Biotechnol J 17:805-811 (2019)) and the short time point of the experiment, which precludes detection of degradation events with slow kinetics. Therefore, the relationship between the formation of abundant, stable ternary complexes and rapid degradation was assessed.
HEK293T cells were seeded into 15 cm plates and cells were transiently transfected with 8 μg of pNTM-FLAG-CRBN construct using lipofectamine 2000. […] Cells were harvested with non-enzymatic CellStripper™ Dissociation reagent (Corning®), followed by three washes with cold PBS and snap freezing. Cell lysis was performed by the addition of IP lysis buffer (50 mM Tris. pH 7.5, 0.5% NP-40, 1 mM EDTA, 10% glycerol and 200 mM NaCl) containing protease inhibitor cocktail (cOmplete™) and relevant co-treatment (above), followed by end-over-end rotation at 4° C. for 3 hours. Lysate was clarified by centrifugation and salt concentration diluted to 100 mM NaCl with the addition of 0 mM NaCl lysis buffer (containing protease inhibitors and 1 μM of relevant compounds to retain temary complexes throughout binding). Lysate was added to 20 μL of pre-washed anti-FLAG M2 magnetic bead slurry (MilliporeSigma) and incubated with end-over-end rotation at 4° C. overnight. Beads were washed six times with 100 mM NaCl lysis buffer containing 1 μM of relevant degraders to retain ternary complexes throughout wash steps.
Proteins were eluted in a two-step elution with the addition of 0.1 M Glycine hydrochloride (MilliporeSigma) and elution buffered to pH 8.5 using 200 mM Tris buffer, pH 8.5. […] Protein pellets were resuspended in 50 μL of EPPs pH 8 and first digested with 2 μg LysC for 12 h at room temperature (RT), followed by 1 μg of trypsin for 6 hours at 37° C.

[3] = target: T2, extended human kinome (kinase-like proteins) (Homo sapiens, UniProt Q9UHH9); test: Whole cell quantitative proteomics: extended kinome hits; details: Accession Q9UHH9
T2 sequence (Q9UHH9 1-426): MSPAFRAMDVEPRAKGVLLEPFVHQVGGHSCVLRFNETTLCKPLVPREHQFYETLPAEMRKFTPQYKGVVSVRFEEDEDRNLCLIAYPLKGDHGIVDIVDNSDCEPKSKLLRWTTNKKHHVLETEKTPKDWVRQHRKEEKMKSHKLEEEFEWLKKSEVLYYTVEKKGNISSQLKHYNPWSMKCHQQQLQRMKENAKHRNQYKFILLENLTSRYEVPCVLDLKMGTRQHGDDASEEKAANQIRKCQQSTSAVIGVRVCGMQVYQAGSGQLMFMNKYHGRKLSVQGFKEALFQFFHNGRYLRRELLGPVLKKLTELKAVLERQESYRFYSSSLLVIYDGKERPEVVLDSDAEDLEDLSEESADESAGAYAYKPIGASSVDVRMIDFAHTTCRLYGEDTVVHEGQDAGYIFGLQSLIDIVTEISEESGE

[4] = HEK293T, 1 μM, 5 h, proteasome inhibitor

T1 sequence (Q96SW2 whole entry): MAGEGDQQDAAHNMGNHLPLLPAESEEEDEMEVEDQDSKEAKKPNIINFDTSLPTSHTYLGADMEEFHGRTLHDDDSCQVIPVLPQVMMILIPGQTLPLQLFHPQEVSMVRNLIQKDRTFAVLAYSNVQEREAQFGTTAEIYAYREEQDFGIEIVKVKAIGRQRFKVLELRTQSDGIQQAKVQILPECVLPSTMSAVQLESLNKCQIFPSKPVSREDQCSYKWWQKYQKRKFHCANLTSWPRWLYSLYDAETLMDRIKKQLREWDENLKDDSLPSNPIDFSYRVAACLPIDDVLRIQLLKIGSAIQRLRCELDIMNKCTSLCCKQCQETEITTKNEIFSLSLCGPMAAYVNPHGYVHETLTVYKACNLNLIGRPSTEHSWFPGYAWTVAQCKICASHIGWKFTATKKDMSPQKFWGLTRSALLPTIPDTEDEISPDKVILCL
T1 sequence (Q16531 whole entry partner): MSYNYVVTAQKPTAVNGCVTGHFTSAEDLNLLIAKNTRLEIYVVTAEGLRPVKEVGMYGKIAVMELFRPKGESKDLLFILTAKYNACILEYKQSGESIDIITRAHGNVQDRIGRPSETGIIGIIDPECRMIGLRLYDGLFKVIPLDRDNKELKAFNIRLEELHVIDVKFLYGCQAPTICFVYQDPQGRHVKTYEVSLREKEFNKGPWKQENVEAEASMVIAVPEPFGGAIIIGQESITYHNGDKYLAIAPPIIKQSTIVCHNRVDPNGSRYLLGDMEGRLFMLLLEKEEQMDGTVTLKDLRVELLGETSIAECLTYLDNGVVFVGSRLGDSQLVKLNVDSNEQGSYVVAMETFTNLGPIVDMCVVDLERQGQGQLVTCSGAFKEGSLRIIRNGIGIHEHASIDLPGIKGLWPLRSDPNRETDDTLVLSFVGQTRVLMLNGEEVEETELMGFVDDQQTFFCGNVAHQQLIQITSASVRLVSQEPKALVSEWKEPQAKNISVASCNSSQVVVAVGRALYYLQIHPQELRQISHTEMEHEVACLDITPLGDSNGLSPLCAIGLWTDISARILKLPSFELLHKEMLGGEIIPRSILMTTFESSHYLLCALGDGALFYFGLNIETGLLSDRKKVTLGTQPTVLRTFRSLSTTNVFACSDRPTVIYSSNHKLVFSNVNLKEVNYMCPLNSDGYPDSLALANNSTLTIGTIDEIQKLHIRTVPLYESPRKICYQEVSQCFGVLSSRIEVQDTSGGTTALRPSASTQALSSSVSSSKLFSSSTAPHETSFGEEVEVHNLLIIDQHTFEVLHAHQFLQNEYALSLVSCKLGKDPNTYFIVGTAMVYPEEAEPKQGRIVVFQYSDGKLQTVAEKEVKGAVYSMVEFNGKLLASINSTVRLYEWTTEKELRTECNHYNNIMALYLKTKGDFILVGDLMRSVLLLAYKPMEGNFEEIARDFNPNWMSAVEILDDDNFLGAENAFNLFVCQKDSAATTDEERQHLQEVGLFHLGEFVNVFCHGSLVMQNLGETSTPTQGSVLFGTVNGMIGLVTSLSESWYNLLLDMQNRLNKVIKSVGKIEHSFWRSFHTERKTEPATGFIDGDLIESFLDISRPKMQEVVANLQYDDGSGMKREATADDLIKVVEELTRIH

SMILES: Cc1ccc(NC(=O)c2cccc(C(F)(F)F)c2)cc1N1Cc2cnc(Nc3ccc(N4CCN(Cc5cn(CCCCCOc6cccc7c6C(=O)N(C6CCC(=O)NC6=O)C7=O)nn5)CC4)nc3)nc2N(C)C1=O (stereo not shown) [DB0646, N-(3-(7-((6-(4-((1-(5-((2-(2,6-Dioxopiperidin-3-yl)-1,3-dioxoisoindolin-4-yl)oxy)pentyl)-1H-1,2,3-triazol-4-yl)methyl)piperazin-1-v)pyridin-3-yl)amino)-1-methyl-2-oxo-1,4-dihydropyrimido[4,5-d]pyrimidin-3(2H)-yl)-4-methylphenyl)-3-(trifluoromethyl)benzamide]
- GCK binding and degradation [1]: bound and degraded
- kinase degradation over time [1]: most kinases showed increased degradation over time
- YES1: ternary complex formation with CRBN versus degradation [2, 4]: complex formation and degradation are sometimes detected together
- enriched proteins in the CRBN AP-MS [2]: fewer enriched proteins

SMILES: C[C@@H]1C[C@@H](O)c2ncnc(N3CCN(C(=O)[C@H](CNCCCCCCCCCCc4cccc5c4C(=O)N(C4CCC(=O)NC4=O)C5=O)c4ccc(Cl)cc4)CC3)c21 (stereo partly shown) [INY.03.041.01]
- logFC IP6K2 ([3]; experiment wp118): −0.662
- logFC IP6K2 ([3]; experiment wp135, 4 hr): −0.3251

SMILES: Cc1ccc(C(=O)Nc2ccc(CN3CCN(CCCOCCOCCOCCNC(=O)COc4cccc5c4C(=O)N(C4CCC(=O)NC4=O)C5=O)CC3)c(C(F)(F)F)c2)cc1C#Cc1cnc2cccnn12 (stereo not shown) [SB1-G-187, N-(4-((4-(1-((2-(2,6-dioxopiperidin-3-yl)-1,3-dioxoisoindolin-4-yl)oxy)-2-oxo-6,9,12-trioxa-3-azapentadecan-15-yl)piperazin-1-yl)methyl)-3 (trifluoromethyl)phenyl)-3-(imidazo[1,2-b]pyridazin-3-ylethynyl)-4-methylbenzamide]
- GCK binding and degradation [1]: bound and degraded
- IRAK1: ternary complex formation with CRBN versus degradation [2, 4]: complex formation and degradation are sometimes detected together
- LYN: ternary complex formation with CRBN versus degradation [2, 4]: complex formation and degradation are sometimes detected together
- YES1: ternary complex formation with CRBN versus degradation [2, 4]: complex formation and degradation are sometimes detected together

SMILES: CC(C)S(=O)(=O)c1ccccc1Nc1nc(Nc2ccc(N3CCN(CCOCCNC(=O)CNc4cccc5c4C(=O)N(C4CCC(=O)NC4=O)C5=O)CC3)cc2)ncc1Cl (stereo not shown) [SK-3-91]
- GCK binding and degradation [1]: not degraded
- kinase degradation over time [1]: most kinases showed increased degradation over time
- YES1: ternary complex formation with CRBN versus degradation [2, 4]: complex formation does not predict degradation
- enriched proteins in the CRBN AP-MS [2]: fewer enriched proteins

SMILES: CC(C)S(=O)(=O)c1ccccc1Nc1nc(Nc2ccc(N3CCN(CCOCCNC(=O)CNc4cccc5c4C(=O)N(C4CCC(=O)NC4=O)C5=O)CC3)cc2)ncc1Cl (stereo not shown) [SK.3.91]
- logFC IP6K2 ([3]; experiment wp016, 1 uM): −0.9368
- logFC IP6K2 ([3]; experiment wp107): −1.472
- logFC IP6K2 ([3]; experiment wp133, 1 hr): −0.4547
- logFC IP6K2 ([3]; experiment wp133, 2 hr): −0.6461
- logFC IP6K2 ([3]; experiment wp133, 4 hr): −0.9692
- logFC IP6K2 ([3]; experiment wp160, 2 hr): −0.4937
- logFC IP6K2 ([3]; experiment wp160, 4 hr): −0.6281

SMILES: CC(C)S(=O)(=O)c1ccccc1Nc1nc(Nc2ccc(N3CCN(CCOCCOCCNC(=O)CNc4cccc5c4C(=O)N(C4CCC(=O)NC4=O)C5=O)CC3)cc2)ncc1Cl (stereo not shown) [TL12.186]
- logFC IP6K2 ([3]; experiment wp137): −0.7538
